Several values for one entry are separate records, joined by “and”; a condition that tells them apart may be missing. Identical values can stand only once.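 Briefly, cells in 96-well plates were exposed to five compound concentrations for 48 h, and endpoints were estimated by linear interpolation. GI50 = concentration required for 50% inhibition of growth. TGI is the concentration that stops growth completely.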
Legend:
Assay in all cases: NCI-60 cell line screen, 48 h
IGROV1 ovarian = system: IGROV1 ovarian
K-562 leukemia = system: K-562 leukemia
PC-3 prostate = system: PC-3 prostate
CCRF-CEM leukemia = system: CCRF-CEM leukemia
T-47D breast = system: T-47D breast
M14 melanoma = system: M14 melanoma
UACC-257 melanoma = system: UACC-257 melanoma

SMILES	GI50 (IGROV1 ovarian)	TGI (IGROV1 ovarian)	GI50 (K-562 leukemia)	TGI (K-562 leukemia) [µM]	GI50 (PC-3 prostate)	TGI (PC-3 prostate)	GI50 (CCRF-CEM leukemia)	TGI (CCRF-CEM leukemia) [µM]	GI50 (T-47D breast) [µM]	TGI (T-47D breast) [µM]	GI50 (M14 melanoma)	TGI (M14 melanoma) [µM]	GI50 (UACC-257 melanoma) [µM]	TGI (UACC-257 melanoma) [µM]
NC(N)=NC(N)=NCCCc1ccco1	> 500 µM	> 500 µM	24.5 µM	238	> 500 µM	> 500 µM	21.8 µM	121	71.7	319	53.6 µM	123	19.2	101
Cc1ccc2c(c1)C(=O)c1c-2c(OCCCN(C)C)nc2ccccc12	1.74 µM	9.94 µM	1.11 µM	2.98	2.26 µM	7.65 µM	1.62 µM	9.13	7.95	26	1.62 µM	3.23	3.06	5.82
N#C/C(=N\Nc1ccccc1)C(=O)Nc1cc(-c2ccccc2)nn1-c1ccccc1	4.49 µM	> 100 µM	2.43 µM	> 100	2.13 µM	9.48 µM	2.5 µM	> 100	2.03	8.11	2.68 µM	> 100	2.47	9.93
C[C@]12CC[C@H]3[C@@H](CC4SC(N)=NC45C/C(=N/NC(N)=O)CC[C@]35C)[C@@H]1CCC2=O (stereo not given in full)	1.78 µM	3.43 µM	1.81 µM	5.08	1.25 µM	2.75 µM	0.28 µM	1.62	1.86	3.8	1.94 µM	3.77	2.4	5.83
O=C(CI)Nc1ccc(O)c2ccccc12	0.296 µM	0.926 µM	0.328 µM	> 100	2.38 µM	9.69 µM			1.7	4.27	1.06 µM	2.63	1.54	3.14
C=CCC1(C(=O)OC(C)(C)C)C(OC)=C(C(=O)OC(C)(C)C)C2C1C(C(=O)OC(C)(C)C)=C(OC)C2(CC=C)C(=O)OC(C)(C)C (stereo not given)		> 100 µM		> 100				> 100				> 100		> 100
COc1ccc(/C(C#N)=C/c2cc(OC)c(OC)c(OC)c2)cc1	29.2 µM	> 100 µM	4.64 µM	31.3	15.6 µM	67.9 µM	22.1 µM	78.6	17	67.6	19.3 µM	> 100	31	> 100
CC(C)C(=O)c1c(C(F)(F)F)n([O-])c2cc(F)c(F)cc2[n+]1=O	0.161 µM	53.7 µM			0.521 µM	1.13 µM	0.0218 µM	> 100	1.26	3.96	0.0708 µM	0.387	2.28	6.38
Cc1ccc(NC(=O)/C(Cc2cc(=O)oc3cc(O)ccc23)=N\NC(C)(C)C)cc1C				> 100		> 100 µM		> 100		> 100		> 100		> 100
COC(=O)C(=O)C(C(=O)C(=O)Nc1ccccc1OC)c1nc2ccc([N+](=O)[O-])cc2[nH]c1=O (stereo not given)		> 100 µM		> 100		> 100 µM		> 100		> 100		> 100		> 100
COc1cc(OC)c(OC)cc1/C=C/c1cnnc2ccccc12		> 10 µM		> 10		> 10 µM		> 10		> 10		> 10		> 10
O=CN1N=C(c2cccc(Nc3ccnc4cc(Cl)ccc34)c2)CC1c1ccccc1 (stereo not given)	0.687 µM	> 100 µM	0.301 µM	10.5	0.306 µM	42.7 µM	0.31 µM	1.48	0.381	9.59	0.284 µM	6.75	0.301	37.6
Clc1ccc2nc(CI)c(CI)nc2c1	2.73 µM	8.36 µM	1.53 µM	7.86	7.02 µM	29.9 µM	2.3 µM	15.3	2.6	8.28	3.16 µM	> 19.8	4.51	16.8
C[C@H]1COCCN1c1cc(C2(S(=O)(=O)C3CC3)CC2)nc(-c2ccc(NC(=S)NCCO)cc2)n1	< 0.01 µM	0.119 µM	0.0498 µM	> 100	< 0.013 µM	38.7 µM	0.0323 µM	> 100	< 0.01	0.0224	0.0287 µM	10.1	0.0187	0.32
Cc1nc2ccccn2c1NC(=O)NNC(=S)Nc1ccc(F)cc1	> 100 µM	> 100 µM	> 100 µM	> 100	> 100 µM	> 100 µM	> 100 µM	> 100	> 100	> 100	> 100 µM	> 100	> 100	> 100
O=c1oc2cc(OC/C(=N/O)c3ccc(F)cc3)ccc2c2ccccc12	23.6 µM	42 µM	20.1 µM	46.3	22.1 µM	49.1 µM	23 µM	> 100	35.4	> 100	19.2 µM	33.7	22.9	39.4
Cn1c(-c2ccccc2)c(/C=C/C2=[N+](C)c3ccccc3C2(C)C)c2ccccc21	1.87 µM	6.07 µM	0.128 µM	5.3	0.575 µM	9.16 µM	1.18 µM	54.7	0.34	9.07	0.963 µM	3.4	0.405	2.53
Cn1nc(C(F)(F)F)c(-c2cc(C(F)(F)F)cc(C(F)(F)F)c2)c1-c1ccc(OCc2ccc(Cl)cc2)cc1O	2.71 µM	12.5 µM	0.62 µM	10.1	1.88 µM	11.5 µM	2.26 µM	14.9	1.54	8.4	2.07 µM	5.27	2.07	6.11
COc1ccc(NC(=O)c2sc3nc(C)c(C(=O)/C=C/c4cccc(OC)c4)cc3c2N)cc1	1.03 µM	2.83 µM	1.43 µM	> 50	1.56 µM	6.55 µM	1.21 µM	> 50	1.46	> 50	1.78 µM	18.7	1.74	11.7

SMILES	GI50 (IGROV1 ovarian)	TGI (IGROV1 ovarian)	GI50 (K-562 leukemia)	TGI (K-562 leukemia) [µM]	GI50 (PC-3 prostate)	TGI (PC-3 prostate)	GI50 (CCRF-CEM leukemia)	TGI (CCRF-CEM leukemia) [µM]	GI50 (T-47D breast) [µM]	TGI (T-47D breast) [µM]	GI50 (M14 melanoma)	TGI (M14 melanoma) [µM]	GI50 (UACC-257 melanoma) [µM]	TGI (UACC-257 melanoma) [µM]
COc1ccc(/C=C2\SC(=Nc3ccccc3)NC2=O)cc1	13.6 µM	> 100 µM	2.31 µM	> 100	7.69 µM	> 100 µM	5.4 µM	> 100	6.46	> 100			52.2	> 100
COc1cc(C(=O)O[C@H](C(=O)NCCN(C)CCNC(=O)[C@@H](OC(=O)c2cc(OC)cc3c(C)cccc23)[C@]2(C)CO2)[C@]2(C)CO2)c2cccc(C)c2c1	< 0.0425 µM		< 0.0389 µM	6.85			< 0.01 µM		0.0924	1.7			0.416	2.38
O=C(C#Cc1ccccc1)C1=Cc2ccccc2OC1		6.37 µM		> 100		22.2 µM		0.528		> 61.1		8.21		8.23
O=C1C(=O)c2ccccc2C(O)=C1CCCc1ccc(C2CCCCC2)cc1			3.28 µM	> 100	0.722 µM	44.8 µM			3.2	35.7	5.93 µM	22.4	6.5	> 100
CC(C)=CC(=O)N[C@H]1CC[C@]2(C)C3CC[C@]4(C)C(C(C)N(C)C)=CCC4C3CCC2[C@H]1O (stereo not given in full)	8.5 µM	25.3 µM	1.58 µM	4.52	3.88 µM	18.1 µM	2.92 µM	14.3	2.58	9.59	1.92 µM	3.74	2.39	5.59
O=C(Nc1ccc(F)cc1)Nc1ccc(Br)c(C(F)(F)F)c1	3.58 µM	15.2 µM	2.13 µM	11.5	0.847 µM	9.24 µM	2.27 µM	6.53	1.62	7.4	2.29 µM	7.41	2.73	7.51
O=C(c1ccco1)c1c(C(F)(F)F)n([O-])c2cc(C(F)(F)F)ccc2[n+]1=O	0.822 µM	2.52 µM	0.172 µM	0.379	0.163 µM	0.559 µM	< 0.0434 µM	0.352	0.355	1.47	1.62 µM	3.05	1.55	3.27
CC1(C)OC(=O)C(C#N)=C1C[n+]1ccccc1		> 10 µM		> 10		> 10 µM		> 10		> 10		> 10		> 10
ClCc1ccccc1Cn1cnc2c(Cl)ncnc21			1.2 µM	5.13	3.03 µM	10.5 µM	1.28 µM	3.24	17.9	62	1.94 µM	3.74	10.7	26.6
COC1=CC(c2ccc[nH]2)=N/C1=C\c1[nH]c(C)c(CC(=O)OCc2ccccc2)c1C	0.325 µM	1.34 µM			0.299 µM	10.3 µM	0.184 µM	1.94	0.251	1.08	0.233 µM	0.59	0.605	2.24
COC(=O)Nc1nc2ccc(C(=O)c3ccccc3)cc2[nH]1	1.01 µM and 0.565 µM	> 100 µM and 52.9 µM	0.391 µM and 0.142 µM	> 56.3	0.405 µM and 0.25 µM	> 100 µM and 19.1 µM	0.398 µM and 0.458 µM	> 100			0.427 µM and 0.257 µM	6.6	38	> 100
C=C1C(=O)O[C@H]2[C@H]1CC/C(COC(=O)CCCc1c[nH]c3ccccc13)=C\CC[C@@]1(C)O[C@@H]21	1.63 µM	3.61 µM	2.6 µM	11	1.92 µM	4.62 µM	0.715 µM	7.5	2.17	4.81	1.66 µM	3.87	2.03	3.96
C=C1C(=O)O[C@H]2[C@H]1CC/C(Cn1cc(-c3ccc(F)cc3)nn1)=C\CC[C@@]1(C)O[C@@H]21	1.17 µM	2.64 µM	0.948 µM	4.84	2 µM	4.07 µM	0.247 µM	0.75			0.944 µM	2.44	1.47	3
C=C1C(=O)O[C@H]2[C@H]1CC/C(COC(=O)OC/C1=C/CC[C@@]3(C)O[C@H]3[C@H]3OC(=O)[C@@H](CN(C)C)[C@@H]3CC1)=C\CC[C@@]1(C)O[C@@H]21	2.3 µM	8.22 µM			2.7 µM	7.89 µM	0.247 µM	0.733	0.714	3.08	1.54 µM	3.35	1.63	4.11
CC(=O)NC(CSC1=C2NC(=O)\C=C/C=C/C=C\C(C)C(O)CC(=O)/C(C)=C\CC(O)/C=C/C(C)C(O)C(C)C=C(C)C(=O)c3c(O)c(C)cc(c3C1=O)C2=O)C(=O)O (stereo not given)		> 100 µM		> 100		> 100 µM		78.9		> 100		> 100		> 100
Nc1ccc(COC(O)CN2CCCCC2)cc1[N+](=O)[O-] (stereo not given)		> 100 µM		> 100		> 100 µM		> 100		> 100		> 100		> 100
C=C1SC(=Nc2ccccc2Cl)N(C(=O)c2sc3ccccc3c2Cl)C12CCCCC2	9.66 µM	> 100 µM	4.14 µM	> 100	4.51 µM	> 100 µM	5.41 µM	> 100	3.35	> 100	45.1 µM	> 100	23.6	> 100
Cc1[nH]c(N)nc(=S)c1CCC(=O)O		> 100 µM		> 100		> 100 µM		> 100				> 100		> 100
